Assay: on-resin all-hydrocarbon stapling by ring-closing metathesis of S5/S5 (i,i+4) or R8/S5 (i,i+7), Grubbs first-generation catalyst (0.45 mmol per 0.15 mmol resin, 3 equiv), then TFA/TIPS/phenol/H2O cleavage and RP-HPLC
Conditions: the molecule shown is the open-chain precursor, 25.0 °C, 4.0 h, 36 steps

Structure (SMILES) | ring closure, overall yield (33-membered ring, 1,2-dichloroethane) [% yield] | ring closure, overall yield (21-membered ring, 1,2-dichloroethane) [% yield]
C=CCCCCCC[C@@](C)(NC(=O)CNC(C)=O)C(=O)N[C@@H](Cc1ccccc1)C(=O)N[C@@H](C)C(=O)N[C@H](C(=O)N[C@H](C(=O)N[C@@H](CCCCNC(=O)OC(C)(C)C)C(=O)N[C@@H](CCCCNC(=O)OC(C)(C)C)C(=O)N[C@@](C)(CCCC=C)C(=O)N[C@@H](C)C(=O)N[C@@H](COC(C)(C)C)C(=O)N[C@H](C(=O)N[C@H](C(=O)N[C@@H](CCCCNC(=O)OC(C)(C)C)C(=O)NCC(=O)N[C@@H](CC(C)C)C(N)=O)[C@@H](C)CC)C(C)C)[C@@H](C)CC)C(C)C | 63 | 
C=CCCC[C@](C)(NC(=O)[C@H](C)NC(=O)[C@@H](NC(=O)[C@H](CCCCNC(=O)OC(C)(C)C)NC(=O)[C@H](CCCCNC(=O)OC(C)(C)C)NC(=O)[C@@H](NC(=O)[C@@H](NC(=O)[C@H](C)NC(=O)[C@H](Cc1ccccc1)NC(=O)[C@H](CC(C)C)NC(=O)CNC(C)=O)C(C)C)[C@@H](C)CC)C(C)C)C(=O)N[C@H](C(=O)N[C@H](C(=O)N[C@@H](CCCCNC(=O)OC(C)(C)C)C(=O)N[C@@](C)(CCCC=C)C(=O)N[C@@H](CC(C)C)C(N)=O)[C@@H](C)CC)C(C)C |  | 62

From publication PMC7758422, “Design, Synthesis, and Antitumor Activities Study of Stapled A4K14-Citropin 1.1 Peptides” (Frontiers in Chemistry, 2020)
